The source of these data is article PMC12266748, “A Xanthine Derivative With Novel Heat Shock Protein 90‐Alpha Inhibitory and Senolytic Properties” (Aging Cell, 2025).

Data set [1] concerns IMR90 cells. Nature of the data set: Dose-response curves on proliferating and replicative senescent IMR90 (Trypan blue cell count). Format: cell-based. The following applies: for EC50: Homo sapiens, IMR-90. The text has this: IMR90 and WI38 lung fibroblasts were purchased from ECACC‐Merck. Human bone marrow (BM)‐derived mesenchymal stromal cells (MSCs) were purchased from Lonza. Human umbilical vein endothelial cells (HUVECs) are primary cells obtained from a pool of donors purchased from Clonetics (Lonza). Murine ear fibroblasts (MearFs) were obtained from C57BL/6J mice maintained in the INRCA “Specific Pathogen Free” (SPF) animal facility. MCF7 breast cancer cells were purchased from ATCC. For dose–response curves, IMR90 and WI38 were induced to senescence through replicative passages; MSCs, HUVECs, and MearFs senescence was induced with Doxorubicin; MCF7 senescence was induced with 4‐Hydroxytamoxifen (Lee et al. [2014]). The EC50 was calculated using GraphPad Prism 10 software. All treatment specifications are reported in the extended section.
Cell culture and treatment. IMR90 cells (Homo sapiens, fetal lung, fibroblast) and WI38 cells (Homo sapiens, fetal lung, fibroblast) were purchased from ECACC-Merck (Merck, Darmstadt, Germany) and cultured in MEM medium (Euroclone, Milano, Italy) supplemented with 1% L-Glutamine (Euroclone, Milano, Italy), 1% Penicillin-Streptomycin (Euroclone, Milano, Italy), and 10% Fetal Bovine Serum (FBS, Euroclone, Milano, Italy), at 37°C, 5% CO2. IMR90 cells with a population doubling (PD) from PD15 to PD23 were used; cells were considered incrementally senescent from passage PD19 to passage PD23. WI38 cells were used from PD26 to PD53. Cells were considered incrementally senescent from passage PD49 to passage PD53. For the compounds in vitro screening, IMR90 cells with passages from PD15 to PD23 were tested at increasing concentrations of 0.5 μM, 1 μM, 10 μM, and 25 μM over 24 and 48 h to evaluate the compounds' efficacy and cytotoxicity compared to the Vehicle (DMSO ≤ 0.1%). Cells were counted manually, in triplicate, using Trypan blue reagent (Euroclone) and disposable Bürker chambers. […] K5 dose-response proliferation curves were performed with compound K5 (Molport, SIA, Riga, Latvia) in concentrations 0.1, 0.5, 1, 5, 10, 50, 100, and 200 μM for 48 h. Cells were counted using a Trypan blue reagent and EVAplus cell counter. The EC50s were calculated by analyzing the data using GraphPad Prism 10 software.
MCF7 cell line (ATCC; HTB-22, Homo sapiens, breast cancer) was purchased from ATCC; cells were grown in MEM medium (Corning, New York, USA, #15-010-CVR) supplemented with 10% FBS (Gibco, Invitrogen, Carlsbad, CA, USA, #10270106), 1% glutamine (Corning #25005-CI), 1% penicillin and streptomycin (Corning #30002-CI). Cells were incubated at 37 °C with 5% CO2. Senescent status induction: MCF7 were plated 24 h before the treatment with 4-Hydroxytamoxifen (TAM) 10 μM to induce the senescence described by (Lee et al. 2014). Control cultures were treated with equal volumes of 75% ethanol as the vehicle. The treatment with TAM lasts 96 h, after which the cells have been washed and treated with the senolytic drugs K5 10 µM for another 96 h. The treatment with the senolytic compounds has been renewed at 48 h. Cell mortality and vitality curves after treatment with K5 (10 μM, orange) or Vehicle (DMSO, grey) were monitored using the Incucyte live-cell Analysis system (Sartorius, Goettingen, Germany). The estimated Senolytic index (SI) was calculated as the ratio between the EC50 in proliferating cells and the EC50 in senescent cells, extrapolated using GraphPad Prism 10 software.

Data set [2] has as its system MCF7 cells. In words: SA-β-galactosidase colorimetric assay on Tamoxifen-treated MCF7. Format: cell-based, Homo sapiens. The procedure: Previously treated cells were fixed according to the protocols established by the supplier (Cell Signaling). The images were acquired using an optical microscope (Leica) with 5× and 10× magnification (MAG) or the phase microscopy EVOS XL Core at 10× MAG and analyzed using the ImageJ software. The mean signal intensity was then normalized for the total number of cells.
MCF7 cell line (ATCC; HTB-22, Homo sapiens, breast cancer) was purchased from ATCC; cells were grown in MEM medium (Corning, New York, USA, #15-010-CVR) supplemented with 10% FBS (Gibco, Invitrogen, Carlsbad, CA, USA, #10270106), 1% glutamine (Corning #25005-CI), 1% penicillin and streptomycin (Corning #30002-CI). Cells were incubated at 37 °C with 5% CO2. […] Cell mortality and vitality curves after treatment with K5 (10 μM, orange) or Vehicle (DMSO, grey) were monitored using the Incucyte live-cell Analysis system (Sartorius, Goettingen, Germany). The estimated Senolytic index (SI) was calculated as the ratio between the EC50 in proliferating cells and the EC50 in senescent cells, extrapolated using GraphPad Prism 10 software.
β-galactosidase colorimetric assay. […] The images were analyzed using the ImageJ software, quantifying the colorimetric signal emitted by each cell. […]

The subject of data set [3] is IMR90 cells. In words: Immunofluorescence of Cytochrome C / mitochondria colocalization in senescent IMR90. The conditions noted are these: senescent IMR90 (PD21), 48 h, K5 25 μM, Dasatinib 1 μM; Vehicle OR = 0.913. Format: cell-based, Homo sapiens. The procedure:
(§1) Treated/untreated senescent IMR90 and MCF7 cells were fixed, permeabilized, and stained following suppliers' recommendations. Images were acquired using an Olympus IX83 research inverted microscope (IF) and a phase microscopy Nikon ECLIPSE Ei R (IHC) at 40× MAG.
(§2) Immunofluorescence staining. Treated/untreated IMR90 and MCF7 cells were cultured in LabTek II chamber slides (Nunc, Biosigma). At the final time point, cells were stained with 500 nM MitoTracker Orange (Thermo Fisher Scientific) for 30 min at 37°C and then fixed in 4% PFA (Merck) for 10 min, RT, and permeabilized with 0.1% Triton solution (Merck) for 30 min at RT. Samples were blocked in 5% BSA for 90 min, incubated overnight at 4°C with primary antibody against Cytochrome C (1:50, RbMAb, Abcam), and 1h at RT with secondary antibody Alexa Fluor 488 goat anti-Rb (1:200, Thermo Fisher Scientific). Nuclei were stained with DAPI (Cell Signaling) for 10 min at RT, and ProLong Glass Antifade Mountant (Thermo Fisher Scientific) was used to seal coverslips. Images were acquired using an Olympus IX83 research inverted microscope at 40X magnifications.

Data set [4] concerns MCF7 cells. Nature of the data set: Immunofluorescence of Cytochrome C / mitochondria colocalization in senescent MCF7. The format is cell-based, Homo sapiens. The following applies: MCF7, TAM 10 µM 96 h, then 72 h K5 10 µM or Dasatinib 1 µM. The method, then:
as §1, §2

The subject of data set [5] is Drosophila melanogaster. In words: Drosophila melanogaster gene expression analysis (qRT-PCR). The following applies: K5 10 μg/mL. The format is in vivo. The procedure: Total RNA from Drosophila melanogaster was isolated using a TripleXtractor reagent kit (Grisp Research Solution, Porto, Portugal). Gene expression of Dacapo (Dap), Unpaired 2 (Upd2), Unpaired 3 (Upd3), and Glyceraldehyde‐3‐phosphate dehydrogenase 1 (Gapdh1) was analyzed by qRT‐PCR. Details are reported in the extended methods.

Like-named read-outs stand apart in the source and are kept apart here.

For orientation: EC50 means the concentration that produces a half-maximal response. For the molecule `Cc1ccccc1-n1c(=O)n(Cc2ccccc2)c(=O)c2[nH]cnc21` [Compound K5, 1-benzyl-3-(2-methylphenyl)-7H-purine-2,6-dione], the concentration giving a half-maximal response (EC50) in data set [1] (IMR90, Replicative/passages, read-out: EC50 senescent cells) was 380 nM; in data set [1] (IMR90, read-out: EC50 proliferating cells) it was more than 500000 nM. Also, in data set [1] (IMR90, Replicative/passages), the “Senolytic evidence (no, partly/yes)” value is “Yes”. Moreover, the “Senolytic index (estimated)” value in data set [1] (IMR90, SI = EC50 in proliferating cells/EC50 senescent cells) is on record as more than 1320. Also, the “toxicity in proliferating cells” value in data set [1] (proliferating IMR90 (PD15), 100 nM to 200 μM, 48 h) is given as “no evident toxicity”. Moreover, in data set [2] (MCF7, TAM 10 μM 96 h then K5 10 μM 24 to 96 h, Vehicle 40%), the “SA-β-gal positive senescent cells” value is given as 10%. Besides, in data set [2] (Tamoxifen-induced senescent MCF7), the “reduced SA-β-gal” value amounted to 30%. The “Cytochrome C / mitochondria colocalization, Overlap R (OR)” value in data set [3] was found to be 0.454; in data set [4] (TAM + Vehicle OR = 0.978) it was 0.896. Further, the “Cytochrome C / mitochondria colocalization, Pearson's Rr (PRr)” value in data set [4] (TAM + Vehicle PRr = 0.961) is given as 0.810. The “Dap relative expression vs controls” value in data set [5] is listed as “no significant difference”. Further, the “Upd2 relative expression vs controls” value in data set [5] (p < 0.05) was “significantly reduced”. Further, the “Upd3 relative expression vs controls” value in data set [5] (p < 0.05) is “significantly reduced”.
